Measured values reported in paper PMC12837263, “β,β-Dimethylacrylalkannin Restores Colistin Efficacy Against mcr- and TCS-Mediated Resistant Gram-Negative Bacteria via Membrane Disturbance” (Antibiotics, 2025).

Experiments:
[1] = system: E. coli BW25113, E. coli BW25113-mcr-1, E. coli BW25113-pmrBR93P; assay: Intracellular colistin content (HPLC-MS/MS); assay type: cell-based; conditions: colistin 0.5 × MIC with β,β-Dim at the highest tested concentration; 30 min
Procedure: Overnight cultures E. coli BW25113, E. coli BW25113-mcr-1, and E. coli 1 BW25113-pmrBR93P were diluted to 10^8 CFU/mL and then co-incubated with colistin (0.5 × MIC) in the presence of β,β-Dim (0–4 μg/mL) for 30 min at 37 °C. The cultures were centrifuged and resuspended in 30% methanol. Bacteria were disrupted by sonication and centrifugation, supernatants were diluted in 20% acetonitrile, and intracellular colistin was quantified via HPLC-MS/MS (TQ-XS, Waters, Milford, MA, USA). Analyses were performed on a CORTECS Shield RP C18 column (Waters, Milford, MA, USA) at 40 °C, with a flow rate of 0.4 mL/min and an injection volume of 5 μL. The mobile phases consisted of solvent A (0.5% formic acid and acetonitrile in water) and solvent B (0.5% formic acid in water). Colistin was detected in positive ESI mode with ion transitions […] and m/z 386.0 > 101.0. […] Mobile phases included solvent A (acetonitrile) and solvent B (water). β,β-Dim was detected in the negative electrospray ionization (ESI) mode with ion transitions m/z 369.1 > 269.0 and m/z 369.1 > 241.0.

[2] = system: K. pneumoniae 667; assay: Murine systemic (abdominal) infection model; assay type: in vivo; conditions: mice
Procedure: Mice were randomly assigned to five groups (n = 10) and infected intraperitoneally with K. pneumoniae 667 (8 × 10^6 CFUs). One hour post-infection, treatments were administered intraperitoneally: PBS, β,β-Dim (2 mg/kg), colistin (0.2 mg/kg), or β,β-Dim combined with colistin (2 + 0.2 mg/kg). Survival was continuously monitored. Upon death, the heart, liver, spleen, lungs, and kidney were immediately collected. At five days post-infection, surviving mice were euthanized, and the same organs were harvested. Half of each organ was weighed, homogenized, diluted, and plated on LA plates for bacterial colony enumeration. The remaining tissue samples were used for histopathological analysis.

[3] = system: S. aureus ATCC 29213; assay: Membrane potential, proton gradient and PMF; assay type: cell-based
[4] = acute oral, mice; cited from earlier work
[5] = system: S. aureus ATCC 29213; assay: Membrane permeability (PI); assay type: cell-based; conditions: β,β-Dim 0–32 µg/mL, 1 h
Procedure: (§1) The S. aureus ATCC 29213 bacterial suspension (OD600 = 0.5) was incubated with fluorescent probe propidium iodide (PI, Cat No. C1008S, Beyotime, Shanghai, China, final concentration 10 µM) for 30 min. Then, β,β-Dim (0–32 µg/mL) was added to the PI-labeled suspension in a black 96-well plate and incubated for 1 h. Fluorescence intensity was measured at an excitation/emission wavelength of 535/615 nm. The cytoplasmic membrane permeability of E. coli BW25113, E. coli BW25113-mcr-1, and E. coli BW25113-pmrBR93P induced by β,β-Dim was assessed by preparing spheroplasts.

[6] = Isothermal titration calorimetry (ITC); assay type: binding; conditions: 25 °C, β,β-Dim vs CL
Procedure: An isothermal titration calorimetry (ITC) assay was used to assess the affinity between β,β-Dim and PE, PG, and CL using NANO ITC (TA, New Castle, DE, USA). β,β-Dim (0.01 mM) was loaded into the sample cell and titrated with 20 injections of 2 μL membrane components (0.2 mM) at 120 s intervals. The assay was performed at 25 °C with a stirring rate of 350 rpm. Data were analyzed using the independent binding model to calculate the dissociation constant (KD), stoichiometric ratio (n), enthalpy change (ΔH), and entropy change (ΔS).

[7] = system: S. aureus ATCC 29213; assay: Effect of membrane components on antibacterial activity; assay type: cell-based
Procedure: The effects of membrane components on the antibacterial activity of β,β-Dim were evaluated using the checkerboard method by exogenous addition of phosphatidylethanolamine (PE), phosphatidylglycerol (PG), and cardiolipin (CL). The same procedure was followed with pre-addition of the respective components to CAMHB to explore their impact on the β,β-Dim–colistin combination in E. coli.

[8] = system: E. coli spheroplasts; assay: Membrane permeability of spheroplasts (PI); assay type: cell-based
Procedure: The cytoplasmic membrane LPS concentrations of E. coli BW25113, E. coli BW25113-mcr-1, and E. coli BW25113-pmrBR93P were quantified using a Chromogenic LAL Endotoxin Assay Kit (Cat No, C0273S, Beyotime, Shanghai, China). Firstly, spheroplasts were prepared according to a previously described method to remove the outer membrane. Briefly, bacterial cells were washed with Tris buffer and resuspended in Tris buffer containing 20% sucrose. EDTA (250 μL, 10 mg/mL) and lysozyme (1 mL, 10 mg/mL) were added, followed by incubation at 30 °C for 1 h with shaking at 80 rpm. Trypsin (500 μL, 10 mg/mL) was added and incubated for an additional 15 min. […] Then, the released LPS was quantified by reacting with LPS detection reagents, and absorbance was measured at 405 nm.
as §1, with “Then, β,β-Dim (0–32 µg/mL) was added to the PI-labeled suspension in a black 96-well plate and incubated for 1 h.” left out

[9] = system: sheep blood cells; assay: Hemolytic activity; assay type: cell-based; conditions: Ovis aries, Erythrocyte; sheep erythrocytes, 1 h; selection criterion; read-out: IC50 hemolysis
Procedure: Toxicity assessment was performed by using sheep blood cells, human renal proximal tubular epithelial HK-2, and human hepatocarcinoma HepG2. Briefly, 8% erythrocyte suspensions were incubated with the test compounds (0–250 µM) for 1 h at 37 °C. After centrifugation, supernatants were transferred to a 96-well plate, and absorbance was measured at 570 nm.
The HepG2 and HK-2 cells (10^4 cells/well) were cultured in DMEM medium containing 10% fetal bovine serum (FBS) and then placed in a 5% CO2 incubator for 24 h. The culture medium was replaced with fresh DMEM medium containing the compounds (0–250 µM), followed by a further 24 h incubation. Subsequently, 10 µL of CCK-8 was added and incubated for 1 h, and OD450nm values were measured.Hemolysis% = [OD570nm(drug) − OD570nm(blank)]/[OD570nm(TritonX−100) − OD570nm(blank)] × 100%Cell viability% = [OD450nm(drug) − OD450nm(blank)]/[OD450nm(negative) − OD450nm(blank)] × 100%

| Molecule | intracellular colistin levels [1] | survival rate ([2]; day 5 post-infection, single i.p. β,β-Dim 2 mg/kg, colistin 0.2 mg/kg) | histopathological analysis (tissue damage) ([2]; heart, liver, spleen, lung, kidney) | membrane potential, proton gradient, PMF [3] | median lethal dose (LD50) [4] | membrane permeability (PI fluorescence intensity) [5] | Kd [6] | antibacterial activity with exogenous PE, PG, and CL [7] | increase of MIC by CL ([7]; CL 40 μM) | membrane permeability [8] | IC50 [9] |
| --- | --- | --- | --- | --- | --- | --- | --- | --- | --- | --- | --- |
| colistin | exceeding 0.6 µg per 10^8 CFUs | 20% | partially alleviated these lesions |  |  |  |  |  |  |  |  |
| CC(C)=CC[C@H](OC(=O)C=C(C)C)C1=CC(=O)c2c(O)ccc(O)c2C1=O [β,β-Dim, β,β-dimethylacrylalkannin] |  |  |  | increased membrane potential in S. aureus ATCC 29213, reduced the proton gradient, and dissipated the PMF | exceeds 10 g/kg | increased membrane permeability in a concentration-dependent manner | 12.4 µM | attenuated the antibacterial activity | 4 fold | markedly increased membrane permeability | > 10 µM |
